Source: patent US20140314791A1, “METHODS OF TREATING CANCER” (DANA-FARBER CANCER INSTITUTE, INC., priority 2012, published 2014)
Where two headings read alike, the source gives them in different places.

What was measured:
[1] = test system: Lkb1-null (t2, t4, and t5) cells; assay: Cell proliferation assay with CHEK1 inhibitors (CCK-8), Lkb1-null; assay type: cell-based, mouse; details: for GI50: read-out: 50% growth inhibition (GI50) concentration
[2] = test system: γH2AX; assay: Western blot analysis of γH2AX after CHEK1 inhibitor treatment; assay type: cell-based; details: 3 h at the GI50 concentration
[3] = test system: Lkb1-wt (634, 855, and 857) cells; assay: Cell proliferation assay with CHEK1 inhibitors (CCK-8), Lkb1-wt; assay type: cell-based, mouse; details: read-out: 50% growth inhibition (GI50) concentration
[4] = test system: Lkb1-null t2, t4, and t5 cells; assay: dTTP rescue of shDtymk growth phenotype; assay type: cell-based, mouse; details: 150 μM dTTP
Protocol: (B) Morphology of Lkb1-null t2, t4, and t5 cells transduced with shGFP or shDtymk-1 and then cultured with or without additional 150 μM dTTP in medium for 3 days.
(§1) Next it was determined whether adding dTTP to the media could rescue cell death after Dtymk knockdown. Three Lkb1-null cell lines were transduced with shGFP or shDtymk-1 and then selectively cultured in puromycin medium in the presence or absence of 150 μM dTTP for 3 days (Taricani et al., 2010). […] Expression of DTYMK in the shDtymk-1 cells was not determined because the remaining cells were too few for RNA and protein extraction (FIG. 4B).

[5] = test system: Lkb1-wt and Lkb1-null cells; assay: 3H-dTTP incorporation into genomic DNA; assay type: cell-based, mouse; details: 0.25 μCi 3H-dTTP, 6 h
Protocol: Lkb1-wt and Lkb1-null cells were plated into 96 well plates with 4000 cells/well in 100 μL medium for overnight culturing then incubated with 0.25 μCi ^3H-dTTP (Perkin Elmer, NET221H250UC) for 6 h and used 0.25 μCi ^3H-deoxythymidine (Perkin Elmer, NET221H250UC) as positive and 0.25 μCi^3H-dTTP/non-cells (medium alone) as negative controls. Cells were washed with PBS, trypsinized, and DNA was captured with a cell harvester on glass fiber filters Filtermat A (Perkin Elmer, #1450-421), which was then placed into a liquid scintillation counting container for counting on a scintillation beta-counter. The data represent mean±SD for 6 replicates.
as §1

[6] = test system: Lkb1-null cells; assay: Array-based viral infection and cell proliferation assay (validation), Lkb1-null; set-up: species or system mouse; details: for Growth of Lkb1-wt/Lkb1-null in array-based validation: Table 6; for Null ave-GR: validation, 5 days post infection, alamarBlue
Protocol: (§2) (C) Validation study. Relative viability of Lkb1-wt and Lkb1-null cells infected with 340 individual hairpins for 5 days. Genes of interest are highlighted by the colors indicated.
(§3) For array-based viral infection and assessment of proliferation, 2.5 μl virus was mixed with 250 cells in 100 μl medium containing 8 μg/ml polybrene per well in 96-well plates. The plates were spun at 2250 rpm/37° C. for 30 min. Immediately after spinning, supernatants were gently aspirated off and 100 μl fresh medium was added to each well of the 96-well plates. After 2 days incubation, medium was gently aspirated off and 100 fresh medium containing 3 μg/ml puromycin was added to each well of the 96-well plates. The plates were back to culture for additional 3 days and then the viable cells were monitored by alamarBlue (Invitrogen) assay according to manufacturer's instructions.
(§4) To identify Lkb1-null-selective essential genes, a synthetic lethal screen was performed using a pooled 40K murine shRNA lentiviral library for each of the Lkb1-wt and Lkb1-null cell lines described above. Relative abundance of shRNAs in each cell line sample was determined by deep-sequencing analysis, and for every shRNA, a log 2 Fold Change (log 2FC) value was calculated from the difference in relative abundance at a late time point after infection versus the initial shRNA-infected sample. An unsupervised hierarchical clustering analysis of the ranked hairpins from the triplicate pooled shRNA library screens of Lkb1-wt and Lkb1-null mouse cancer cells is shown in FIG. 1A. […] The ranked hairpins were collapsed by using two methods, a RIGER analysis (KS t-test based statistics) and a weighted second best analysis to rank genes that selectively impaired proliferation/viability in Lkb1-null cells. A union of 344 genes, identified by the top 100 individual hairpins for 88 genes (Table 1) and the top 200 genes from both the KS (Table 2) and weighted second best (Table 3), was nominated as the initial prioritized list (FIG. 1B). 340 shRNAs, targeting 70 candidate genes from this prioritized list, were chosen for validation (Table 4). The 70 genes consisted of the top 10 candidates from the KS analysis, as well as 60 others involved in a range of biological processes in an attempt to represent all biological categories in the validation process. Validation was performed in an array format with an assay of relatively short duration (5 days post infection) compared to the primary pooled screen (28 days), which should be a more stringent selection, as it required the anti-proliferative effects to manifest in a short time period. […] Dtymk, Check1, and Pdhb are the top 3 candidate genes, each with 3 hairpins that scored in the validation assay (FIG. 1C).

[7] = test system: Lkb1-null versus Lkb1-wt cell lines; assay: Large-scale pooled shRNA library screening (murine 40K pool); assay type: cell-based, mouse; details: for Hairpin-rank in pooled shRNA screen: Table 6; for # Hairpins 1000: number of the gene's hairpins ranked within 1000; for # Hairpins 5000: number of the gene's hairpins ranked within 5000; for # Hairpins 10000: number of the gene's hairpins ranked within 10000
[8] = test system: Lkb1-wt cells; assay: Array-based viral infection and cell proliferation assay (validation), Lkb1-wt; set-up: species or system mouse; details: 5 days post infection, alamarBlue
Protocol: as §2, §3, §4

[9] = test system: Chek1; details: Lkb1-wt 634 cells, normalized to shGFP
[10] = test system: Lkb1-wt (634, 855, and 857) and Lkb1-null (t2, t4, and t5) cells; assay: Proliferation assay of shRNA-transduced cells (CellTiter-Glo); assay type: cell-based, mouse; details: in vitro, puromycin 3 μg/ml
Protocol: Viable cells were measured daily using Promega's CellTiter-Glo Assay. Two independent sets of transductions into the 6 cell lines were shown: the first set used shGFP, shDtymk-1, and shChek1-4 (upper panels), and the second set used shGFP, shDtymk-3, and shChek1-1 (lower panels).
Lentiviral production and target cell transduction were performed according to previously description (Moffat et al., 2006). Briefly, 293T cells were co-transfected with pLenti-vector, pCMV-dR8.74psPAX2, and pMD2.G using TransIT-LT1 transfection reagent (Mirus). Thirty-six h after transfection, the supernatant was harvested and spun at 3000 rpm/4° C. for 10 min, and then incubated with target cells in the presence of 8 μg/ml polybrene (Sigma) for 24 h. Two days after infection, the cells were collected for further analysis as indicated in the presence of 3 μg/ml Puromycin (Invitrogen).
Cells were plated into 96-well plates at 2000 cells per well in 100 μl, with addition of puromycin at 3 μg/ml for shRNA lentivirus infected cells, or with addition of variable doses of drug for drug treatment effects. Viable cells were measured daily or for a period of up to 3 days either by CellTiter-Glo Luminescent Cell Viability Assay (Promega) or by Cell Counting Kit-8 (CCK-8) (Dojindo) according to the manufacturer's instructions. All proliferation assays were performed in triplicate wells.
Depletion of DTYMK and CHEK1 was confirmed by Western blot (FIG. 11B).

[11] = test system: Lkb1-wt (634 and 857) and Lkb1-null (t2 and t4) tumors; assay: Tumor development of shRNA-transduced cells implanted into athymic nude mice; assay type: in vivo; details: doxycycline treatment for 3 weeks
Protocol: (C) 1×10^6 Lkb1-wt (634 and 857) and Lkb1-null (t2 and t4) cells transduced with the indicated shRNA were implanted into athymic nude mice for 3 weeks. Tumor volume (mm^3) was calculated as […]. The data represent mean±SD for 4 mice. Lkb1-wt 634 and Lkb1-null t4 tumors with the indicated shRNAs were shown (D).
To investigate whether reduced expression of Dtymk or Chek1 inhibited tumor development in vivo, Lkb1-wt (634 and 857) and Lkb1-null (t2 and t4) cells transduced with pTetOn-shGFP, pTetOn-shDtymk-3, or pTetOn-shChek1-4 were implanted into athymic nude mice.

[12] = test system: Dtymk; assay: QPCR analysis of Dtymk knockdown in Lkb1-wt 634 cells; details: normalized to shGFP
[13] = gene-level KS score over all hairpins of the gene (Table 2, Top 200 genes by KS), only the first hairpin id is printed
[14] = rank of the gene by NES, KS analysis

| Compound | Growth of Lkb1-wt/Lkb1-null in array-based validation [6] | Null ave-GR [6] | Hairpin-rank in pooled shRNA screen [7] | WT ave-GR [8] | mRNA remaining (by qPCR) [9] [%] | mRNA remaining (by qPCR) [12] [%] | further results |
| --- | --- | --- | --- | --- | --- | --- | --- |
| O=c1[nH]c2ccc(Cl)cc2c(N[C@@H]2CN3CCC2CC3)c1-c1nc2ccccc2[nH]1 [CHIR124] |  |  |  |  |  |  | inhibition of Lkb1-null cells stronger than Lkb1-wt cells ([1]; GI50 Lkb1-wt versus Lkb1-null): 3 fold; GI50 ([1]; Lkb1-null cells, mean, 3 days): 19 nM; phosphorylation of H2AX (Western blot) [2]: induced phosphorylation of H2AX; GI50 ([3]; Lkb1-wt cells, mean, 3 days): 56 nM |
| Cc1cn([C@H]2C[C@H](O)[C@@H](COP(=O)(O)OP(=O)(O)OP(=O)(O)O)O2)c(=O)[nH]c1=O [dTTP] |  |  |  |  |  |  | toxicity of dTTP to shGFP-transduced cells [4]: not to be toxic; growth of shDtymk-transduced Lkb1-null cells with exogenous dTTP ([4]; 3 days): grew as well as shGFP-transduced cells; passage of radiolabeled dTTP through the cell membrane (incorporation into genomic DNA) [5]: passed through the cell membrane |
| AZD7762 |  |  |  |  |  |  | inhibition of Lkb1-null cells stronger than Lkb1-wt cells [1]: 3 fold; GI50 [1]: 90 nM; GI50 [3]: 275 nM |
| shChek1-1: shRNA hairpin GCTGTGAATAGAATAACTGAA targeting Mouse Chek1 | 2.14 | 0.73 | 327 | 1.57 | 35.50 |  | cell growth compared to shGFP control, Lkb1-null versus Lkb1-wt [10]: inhibited Lkb1-null cell growth more strongly than the growth of Lkb1-wt cells |
| shChek1-2: shRNA hairpin GCCACGAGAATGTAGTGAAAT targeting Mouse Chek1 | 1.26 | 0.85 | 14869 | 1.07 | 43.90 |  |  |
| shChek1-3: shRNA hairpin CCCATGTAGTAGTATCACTTT targeting Mouse Chek1 | 1.64 | 0.27 | 23815 | 0.45 | 42.10 |  | NES [7, 13]: 1.57; NES ([7]; gene-level normalized enrichment score over all hairpins of the gene): 1.520; Gene rank ([7]; gene-level rank by NES): 119; # Hairpins 500 ([7]; number of the gene's hairpins ranked within 500): 1; # Hairpins 1000 [7]: 1; # Hairpins 5000 [7]: 1; # Hairpins 10000 [7]: 1; # HP 500 ([7]; number of the gene's hairpins ranked within top 500): 1; # HP 1000 ([7]; number of the gene's hairpins ranked within top 1000): 1; # HP 5000 ([7]; number of the gene's hairpins ranked within top 5000): 1; # HP 10000 ([7]; number of the gene's hairpins ranked within top 10000): 1; Gene rank [7, 14]: 61 |
| shChek1-4: shRNA hairpin GTGGAAGAAGAGTTGTATGAA targeting Mouse Chek1 | 2.31 | 0.30 | 26693 | 0.70 | 30.20 |  | tumor growth of Lkb1-null tumors expressing shRNA versus shGFP and Lkb1-wt tumors [11]: grew significantly slower; cell growth compared to shGFP control, Lkb1-null versus Lkb1-wt [10]: inhibited Lkb1-null cell growth more strongly than the growth of Lkb1-wt cells |
| shChek1-5: shRNA hairpin GCAACGGTATTTCGGCATAAT targeting Mouse Chek1 | 1.2 | 0.96 | 23858 | 1.15 | 40.70 |  |  |
| shDtymk-2: shRNA hairpin CTTCTCTGCAAACCGCTGGGA targeting Mouse Dtymk | 1.18 | 1.03 | 19621 | 1.21 |  | 66.70 |  |
| shDtymk-3: shRNA hairpin ACGGAACTAGAGGATCACTCT targeting Mouse Dtymk | 2.96 | 0.28 | 100 | 0.83 |  | 27.80 | Hairpin rank ([7]; Top 100 shRNAs, ranked hairpin list of selectively essential hairpins in Lkb1-null background (log2FC)): 98; tumor growth of Lkb1-null tumors expressing shRNA versus shGFP and Lkb1-wt tumors [11]: grew significantly slower; cell growth compared to shGFP control, Lkb1-null versus Lkb1-wt [10]: inhibition was stronger in Lkb1-null cells |
| shDtymk-4: shRNA hairpin GAAATCGGCAAGCTTCTGAAT targeting Mouse Dtymk (also Human DTYMK) | 1.67 | 0.51 | 28546 | 0.85 |  | 51.10 |  |
| shDtymk-5: shRNA hairpin CAAGACCACGCAGGCCCTCAA targeting Mouse Dtymk (also Human DTYMK) | 1.05 | 1.06 | 5760 | 1.11 |  | 77.90 | NES [7, 13]: 1.53; # Hairpins 1000 [7]: 1; # Hairpins 5000 [7]: 1; # Hairpins 10000 [7]: 2; Gene rank [7, 14]: 103 |
